These results are taken from PubChem BioAssay (NCI).

Common to all, as to assay: NCI tumour cell line growth inhibition, 48 h
The subject of experiment [1] is DU-145 prostate.
Experiment [2] deals with HL-60(TB) leukemia.
Experiment [3] has as its system M14 melanoma.
For experiment [4], the system named is MCF7 breast.
In experiment [5] the test system is MDA-N.
The subject of experiment [6] is PC-3 prostate.
The subject of experiment [7] is RPMI-8226 leukemia.
Experiment [8] concerns SF-295 CNS.
The subject of experiment [9] is UACC-257 melanoma.

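Briefly, cells in 96-well plates were exposed to five compound concentrations for 48 h, and endpoints were estimated by linear interpolation. The concentration for full growth arrest is given as TGI.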 Where a SMILES comes first, the peptide text is derived from it. [ ]: non-standard residue; d: D form. The star is where a group is joined. Phe(4-NO2) = N[CH](Cc1ccc([N+](=O)[O-])cc1)C(=O)O; Boc = CC(C)(C)OC(=O)*; OBn = c1ccc(CO*)cc1 Some results are limits rather than exact numbers.

Consider `COC(=O)CCC(NC(=O)OC(C)(C)C)C(=O)NC(Cc1ccc([N+](=O)[O-])cc1)C(=O)NCC(=O)OCc1ccccc1` (stereo unspecified) (Boc-Glu(OMe)-[Phe(4-NO2)]-Gly-OBn; configuration not given here), for which the TGI in experiment [1], in experiment [2], in [3], in [4], in [5] and in experiment [6] was greater than 100 µM each time. Also, the TGI in [7] was greater than 100 µM; in [8] it was greater than 74.1 µM; in [9] it was greater than 100 µM.

Take `Cc1ccc([N+](=O)[O-])cc1S(=O)(=O)Nc1ccc(C2=NN(c3ccc([N+](=O)[O-])cc3[N+](=O)[O-])C(c3ccccc3)C2)cc1` (stereo unspecified): the TGI in [1] stood at 38.9 µM; in experiment [2], 57.5 µM; in [3] it was 51.1 µM; in experiment [4], 26.3 µM; in experiment [5], 35.5 µM; in experiment [6], 28.8 µM. The TGI in [7] was greater than 100 µM; in experiment [8] it was 35.9 µM; in experiment [9] it was 40.7 µM.

For the molecule `CCN1CC(C)Cn2c(=O)[nH]c3cc(Br)cc1c32` (stereo unspecified), the TGI was greater than 100 µM in experiment [1]; 37.5 µM in experiment [2]; greater than 100 µM in experiment [3]; 87.4 µM in experiment [4]; 51.8 µM in experiment [5]; greater than 100 µM in experiment [6]. Moreover, the TGI in experiment [7], in experiment [8] and in experiment [9] was greater than 100 µM in each case.

In the case of `CCC(C)[C@H](NC(=O)N[C@H](C)c1ccccc1)C(=O)OC` (stereo partly specified), the TGI in [1], in [2], in experiment [3], in experiment [4], in experiment [5] and in [6] was greater than 100 µM in each case. For the same molecule, the TGI in experiment [7], in [8] and in experiment [9] was greater than 100 µM in each case.

`Oc1ccc(Cl)cc1C1=N/C(=N\CN2CCN(C/N=C3/N=C(c4cc(Cl)ccc4O)CC(c4ccccc4)N3)CC2)NC(c2ccccc2)C1` (stereo unspecified): the TGI in experiment [1], in experiment [2], in experiment [3], in experiment [4], in [5] and in [6] was greater than 100 µM in each case. Besides, the TGI in [7] was 76.1 µM; in experiment [8] it was 91.7 µM; in experiment [9] it was greater than 100 µM.

For `COC1C(O)CC(OC2C(C)OC(Oc3cc(O)c4c(O)c5c(cc4c3)C[C@@H]([C@H](OC)C(=O)[C@@H](O)[C@@H](C)O)[C@H](OC3CC(OC4CC(OC6CC(C)(O)C(O)C(C)O6)C(O)C(C)O4)C(O)C(C)O3)C5=O)CC2OC(C)=O)OC1C` (stereo partly specified), the TGI in [1], in experiment [2], in experiment [4], in experiment [5], in [6] and in experiment [7] was greater than 100 µM throughout.

As for `COc1ccc(CCn2cnc3ccccc32)cc1`, the TGI in experiment [1], in experiment [2], in experiment [3], in [4], in [5] and in experiment [6] was greater than 100 µM throughout. Besides, the TGI in experiment [7], in experiment [8] and in [9] was greater than 100 µM in each case.

For the molecule `CC(C)(C)OC(=O)n1cc(C2CNC(=O)C23CCC(=O)N3Cc2ccccc2)c2ccccc21` (stereo unspecified), the TGI in experiment [1] stood at 55.4 µM; in [2], 82.5 µM; in [3], 67.4 µM; in [4], 80.3 µM; in experiment [5] it was 85.5 µM; in experiment [6], 79.3 µM. Also, the TGI in experiment [7] was found to be 40.8 µM; in experiment [8], 35.3 µM; in experiment [9], 65.2 µM.

As to `Cc1c(C)c(C)c(-n2[nH]c(=O)n(C)c2=O)c(C)c1C`, the TGI in experiment [1], in experiment [2], in experiment [3], in experiment [4], in experiment [5] and in experiment [6] was greater than 100 µM in each case. Also, the TGI in experiment [7], in experiment [8] and in experiment [9] was greater than 100 µM in each case.

As for `COc1cc2c3cc1Oc1c(O)c(OC)cc4c1[C@H](Cc1ccc(cc1)Oc1cc(ccc1O)C[C@H]3N(C)CC2)N(C)CC4`, the TGI in [1] was 37.5 µM; in [2], 33.9 µM; in [3], 5.62 µM; in experiment [4] it was 44.4 µM; in [5], 24.7 µM; in experiment [6], 27.1 µM. For the same molecule, the TGI in [7] amounted to 20 µM; in [8], 31.3 µM; in experiment [9] it was 33.9 µM.

Take `O=C(Nc1ccccc1)O/N=C(/CBr)c1ccccc1`: the TGI in experiment [1] is 38.1 µM; in experiment [2] it was 32.5 µM; in [3], 28.4 µM; in experiment [4], 40 µM; in experiment [5] it was 24.2 µM; in experiment [6], 30.3 µM. In addition, the TGI in [7] worked out at 51.3 µM; in experiment [8], 70.1 µM; in [9] it was 35.5 µM.

For `COC(=O)c1cc(C)ccc1CC(Cc1cccc(C)c1)C(=O)OC` (stereo unspecified), the TGI in [1], in experiment [2], in [3], in experiment [4], in experiment [5] and in experiment [6] was greater than 100 µM in each case. For the same molecule, the TGI in experiment [7], in [8] and in experiment [9] was greater than 100 µM each time.

In the case of `CC(=O)c1ccc(N=Nc2ccc3nonc3c2N)cc1`, the TGI in experiment [1], in [2], in [3], in [4], in experiment [5] and in experiment [6] was greater than 100 µM throughout. Also, the TGI in experiment [7], in experiment [8] and in experiment [9] was greater than 100 µM in each case.

Take `COc1cc2c(cc1C[N+](C)(C)CSc1ccccc1)-c1ccccc1CC2`: the TGI in experiment [1] worked out at 21.2 µM; in [2] it was 2.46 µM; in experiment [3], 7.95 µM; in experiment [4] it was 16.4 µM; in experiment [5] it was 5.48 µM; in experiment [6] it was 11 µM. Further, the TGI in experiment [7] came out at 17.2 µM; in experiment [8], 25.5 µM; in experiment [9] it was 12.3 µM.

In the case of `CN(C)c1ccc(/C=N/Nc2nc3ccccc3c(=O)n2-c2ccccc2)cc1`, the TGI in experiment [1], in experiment [2], in experiment [3], in experiment [4], in experiment [5] and in experiment [6] was greater than 100 µM each time. Besides, the TGI in [8] and in experiment [9] was greater than 100 µM in each case.

For the molecule `Cn1ccnc1Sc1ccc(/C=N/NC(=O)c2ccccc2O)cc1[N+](=O)[O-]`, the TGI in experiment [1], in experiment [2], in experiment [3], in experiment [4], in experiment [5] and in experiment [6] was greater than 100 µM each time. Also, the TGI in [7] was 41.2 µM; in experiment [8] it was greater than 100 µM; in [9] it was greater than 100 µM.

For `COc1cc(-c2nc3cc(F)ccc3s2)ccc1O`, the TGI in experiment [1], in [2], in experiment [3], in experiment [4], in [5] and in [6] was greater than 100 µM each time. For the same molecule, the TGI in experiment [7] is greater than 100 µM; in experiment [8] it was greater than 100 µM; in [9], 66.3 µM.

On to `N=C(N)SCCON1C(=O)c2ccccc2C1=O`, for which the TGI in experiment [1], in [2], in experiment [3], in experiment [4], in experiment [5] and in [6] was greater than 100 µM in each case. Also, the TGI in [7], in experiment [8] and in experiment [9] was greater than 100 µM throughout.

`Cc1ccc(S(=O)(=O)N/C(=C\C=C\c2ccccc2)C(=O)C(C)(C)C)cc1`: the TGI in experiment [1], in experiment [2], in experiment [3], in experiment [4], in experiment [5] and in [6] was greater than 100 µM each time. In addition, the TGI is 75.9 µM in [7], greater than 100 µM in experiment [8] and greater than 100 µM in experiment [9].

For `O=C(Nc1ccccc1F)c1c(O)nc2sccn2c1=O`, the TGI in experiment [1], in experiment [2], in experiment [3], in experiment [4], in experiment [5] and in [6] was greater than 10 µM in each case. The TGI in [7] and in experiment [8] was greater than 10 µM in each case.

Consider `CCNC(=O)Nc1cccc(C)n1`, for which the TGI in experiment [1], in experiment [2], in experiment [3], in experiment [4], in experiment [5] and in experiment [6] was greater than 100 µM each time. The TGI in experiment [8] and in experiment [9] was greater than 100 µM throughout.

`Cc1ccc(F)cc1NC(=O)O/N=C(\Cl)C(C)C`: the TGI in [1] is 33.5 µM; in experiment [2], greater than 21.2 µM; in experiment [3], 12.2 µM; in experiment [4], 20.8 µM; in [5], 11.8 µM; in experiment [6], 33.4 µM. Further, the TGI in experiment [7] was 4 µM; in experiment [8], greater than 61.1 µM; in experiment [9], 46.7 µM.

As to `CSc1nc(NC2CCCC2)c2cc[nH]c2n1`, the TGI is greater than 100 µM in experiment [1]; 47.4 µM in experiment [2]; greater than 100 µM in [3]; greater than 100 µM in experiment [4]; greater than 100 µM in experiment [5]; greater than 100 µM in [6]. Moreover, the TGI in [7], in experiment [8] and in experiment [9] was greater than 100 µM throughout.

On to `O=c1[nH]nc(Cc2ccccc2)n1/N=C/c1c[nH]c2ccccc12`, for which the TGI in experiment [1], in experiment [2], in experiment [3], in experiment [4], in experiment [5] and in [6] was greater than 100 µM in each case. In addition, the TGI in [7], in [8] and in experiment [9] was greater than 100 µM throughout.

As to `CC(C)CCCC(C)[C@H]1CCC2[C@@H]3CCC4Cc5nc6c(nc5C[C@]4(C)C3CC[C@@]21C)CC1CC[C@@H]2C(C[C@@H](O)[C@@]3(C)C2C[C@@H]2OC4(CCC(C)CO4)C(C)[C@@H]23)[C@@]1(C)C6` (stereo partly specified), the TGI in experiment [1], in experiment [2], in experiment [3], in experiment [4], in experiment [5] and in [6] was greater than 100 µM in each case. Besides, the TGI in experiment [7], in [8] and in [9] was greater than 100 µM throughout.

For `COc1ccc(N(C(=O)Nc2ccc(Cl)c(Cl)c2)c2ccccc2)cc1`, the TGI in [1], in [2], in experiment [3], in experiment [4], in [5] and in experiment [6] was greater than 10 µM in each case. In addition, the TGI in experiment [8] and in experiment [9] was greater than 10 µM each time.

As to `Oc1ccc(/C=C\c2nnc(/C=C\c3ccc(O)c(O)c3)s2)cc1O`, the TGI is 18.8 µM in experiment [1]; 2.94 µM in experiment [2]; 26 µM in [3]; 12.8 µM in experiment [4]; 20.8 µM in experiment [5]; 29.3 µM in experiment [6]. Moreover, the TGI in experiment [8] came to 24.8 µM; in experiment [9] it was 35.7 µM.

As for `O=[N+]([O-])c1cccc(-c2csc(N=Nc3c(O)[nH]c4ccccc34)n2)c1`, the TGI is 65.9 µM in experiment [1]; 50.2 µM in experiment [2]; greater than 100 µM in experiment [3]; greater than 100 µM in [4]; greater than 100 µM in [5]; 99.4 µM in experiment [6]. For the same molecule, the TGI in experiment [8] was 44.4 µM; in experiment [9], 41.3 µM.

Turning to `CC1(C)OC2OC(COC(=O)C=[N+]=[N-])C3OC(C)(C)OC3C2O1` (stereo unspecified), the TGI in experiment [1], in [2], in experiment [4], in experiment [5], in [6] and in experiment [7] was greater than 100 µM in each case. Besides, the TGI in experiment [8] and in [9] was greater than 100 µM throughout.
